In patent EP4570805A1, “TRICYCLIC COMPOUNDS AND MEDICAL USE THEREOF” (Chia Tai Tianqing Pharmaceutical Group Co., Ltd., priority 2022, dated 2024):

Columns and labels:
Capan-1 cells = assay: Inhibitory activity for Capan-1 cell proliferation (CCK-8); type: cell-based; conditions: Homo sapiens, CAPAN-1, 120 h, 5 days incubation
Procedure, shortened: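 Capan-1 cells were seeded at 1.5 × 10^4 cells/mL and exposed to compound for 5 days. CCK-8 was added for 4 h, with absorbance read at 450 nm. IC50 came from a four-parameter dose-response fit.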

[1] = In vivo pharmacokinetics in mice; conditions: mouse, plasma, po, ICR mice, IG, 10 mg/kg
Protocol: ICR mice weighing 20 g to 24 g were randomized into groups with 9 mice in each group after 3 to 5 days of acclimatization, and intragastric administration of the experimental compounds was performed at a dose of 10 mg/kg.
The test animals (ICR mice) were fasted for 12 h before administration and fed 4 h after administration, and were given free access to water before, after, and during the experiment.
After intragastric administration, about 0.1 mL of blood was collected via the orbital sinus at 0.25 h (15 min), 0.5 h (30 min), 1 h, 2 h, 4 h, 6 h, 8 h, and 10 h (each mouse was subjected to blood collection at 3 to 4 time points, with 3 mice per time point). Following anticoagulation with EDTA-K2, the blood samples were transferred to a centrifuge within 30 min and then centrifuged at 4000 rpm for 10 min at 4 °C to separate the plasma. All the plasma samples were collected and immediately stored at -20 °C for testing.
20 µL of the plasma sample to be tested and the standard curve sample were pipetted, and 400 µL of acetonitrile solution containing an internal standard (20 ng/mL) was added. The mixture was shaken and mixed well for 10 min, and centrifuged at 13000 rpm for 10 min. 50 µL of the supernatant was taken and diluted with 100 µL of ultrapure water. After being mixed well, 0.5 µL of the resulting sample was subjected to LC/MS/MS, and a chromatogram was recorded.
Oral exposure of the compounds of the present disclosure was evaluated by in vivo pharmacokinetic experiments in mice.

[2] = In vitro liver microsomal stability, human; type: in vitro ADME; conditions: human liver microsome 0.5 mg/mL, 37 °C
Excerpt: Table 2. Results for in vitro liver microsomal metabolic stability

For `CC(c1cccnc1N)N1c2nc(OC[C@@H]3CCCN3C)nc3c(F)c(-c4cc(N)cc(Cl)c4C(F)(F)F)nc(c23)OC[C@@H]1C` (single isomer, unassigned) [Example 162], the IC50 (Capan-1 cells) was < 100 nM, the Cmax [1] was 38.4 ng/mL and the Tmax [1] was 1 h. The AUC(0-t) at 6 h ([1]; gavage parameters were fitted to 6 h) was 156 ng·h/mL and the “The remaining amount % (T = 60 min) (0.5 mg/mL) Human liver microsome” value [2] was >40%.
